Measured values reported in PubChem BioAssay (NCI).
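Each compound was tested at five concentrations against cells in 96-well plates for 48 hours. The concentration for full growth arrest is given as TGI.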

Assays:
Test in all cases: growth of human tumour cells (NCI), 48 h
CAKI-1 renal = test system: CAKI-1 renal
HCT-116 colon = test system: HCT-116 colon
HCT-15 colon = test system: HCT-15 colon
MDA-MB-435 = test system: MDA-MB-435
M14 melanoma = test system: M14 melanoma
PC-3 prostate = test system: PC-3 prostate
HOP-62 NSCLC = test system: HOP-62 NSCLC
NCI-H226 lung = test system: NCI-H226 lung
786-0 renal = test system: 786-0 renal
SK-MEL-2 melanoma = test system: SK-MEL-2 melanoma
SK-OV-3 ovarian = test system: SK-OV-3 ovarian
HL-60(TB) leukemia = test system: HL-60(TB) leukemia
SF-268 CNS = test system: SF-268 CNS
UACC-257 melanoma = test system: UACC-257 melanoma
UO-31 renal = test system: UO-31 renal
SF-539 CNS = test system: SF-539 CNS
UACC-62 melanoma = test system: UACC-62 melanoma
SNB-19 CNS = test system: SNB-19 CNS
EKVX NSCLC = test system: EKVX NSCLC

SMILES	TGI (CAKI-1 renal)	TGI (HCT-116 colon)	TGI (HCT-15 colon)	TGI (MDA-MB-435)	TGI (M14 melanoma)	TGI (PC-3 prostate)	TGI (HOP-62 NSCLC)	TGI (NCI-H226 lung)	TGI (786-0 renal)	TGI (SK-MEL-2 melanoma)	TGI (SK-OV-3 ovarian)	TGI (HL-60(TB) leukemia)	TGI (SF-268 CNS)	TGI (UACC-257 melanoma)	TGI (UO-31 renal)	TGI (SF-539 CNS)	TGI (UACC-62 melanoma)	TGI (SNB-19 CNS)	TGI (EKVX NSCLC)
O=C(CCCn1ccnc1[N+](=O)[O-])NCCn1cnc([N+](=O)[O-])n1	> 100 µM	> 100 µM	> 100 µM	> 100 µM	> 100 µM	> 100 µM	> 100 µM	> 100 µM	> 100 µM	> 100 µM	> 100 µM	> 100 µM	> 100 µM	> 100 µM	> 100 µM	> 100 µM	> 100 µM		
COC(=O)[C@H](Cc1ccccc1)NC(=O)N(CCNC(=O)OC(C)(C)C)c1ccccc1	> 100 µM	> 100 µM	> 100 µM	> 100 µM	> 100 µM	> 100 µM	> 100 µM	> 100 µM	> 100 µM	> 100 µM	> 100 µM	> 100 µM	> 100 µM		> 100 µM		> 100 µM	> 100 µM	> 100 µM
C[C@@H](c1ccccc1)N1CO[C@@]2(C#Cc3ccc4c(c3)OCO4)CCC[C@@H]12	34.6 µM	29.1 µM	27.4 µM	28.2 µM	31.2 µM	27.1 µM	29.3 µM	38.6 µM	36 µM	34.3 µM	34.5 µM	> 100 µM		38.2 µM	28.1 µM		> 100 µM	30.3 µM	52.6 µM
CCOc1cc2c(cc1O)C(=O)C[C@@H]1[C@@H]2CC[C@]2(C)[C@@H](O)CC[C@@H]12	> 100 µM	38 µM	29.3 µM	0.222 µM	> 38.9 µM	> 82.5 µM	> 100 µM	17 µM	> 53.8 µM	> 58.1 µM	> 73.6 µM		> 95.4 µM	> 100 µM	> 100 µM	0.487 µM	> 100 µM	> 55.2 µM	> 100 µM
O=C(O)c1ccc(Nc2cnc3cc(C(F)(F)F)ccc3n2)cc1	> 100 µM	> 100 µM	83.5 µM	> 100 µM		> 100 µM	> 100 µM	> 100 µM	> 100 µM			> 100 µM	> 100 µM	> 100 µM	> 100 µM	> 100 µM	53.6 µM	> 100 µM	> 100 µM
O=C(Nc1ccc(Cl)cc1)c1cc(S(=O)(=O)N2CCNNC2=O)c(S)cc1Cl	> 100 µM	> 100 µM	> 100 µM	> 100 µM	> 100 µM	> 100 µM		> 100 µM	> 100 µM	> 100 µM		> 100 µM	> 100 µM	> 100 µM	> 100 µM	> 100 µM	> 100 µM	> 100 µM	> 100 µM
CC1(C)N([O-])[N+](=O)C1(C)O (configuration not stated)	> 100 µM	> 100 µM	> 100 µM	> 100 µM	> 100 µM	> 100 µM		> 100 µM	> 100 µM	> 100 µM	> 100 µM	> 100 µM	> 100 µM	> 100 µM	> 100 µM	> 100 µM	> 100 µM	> 100 µM	> 100 µM
Cc1cccc(-c2nc(-c3cnccn3)n(Cc3ccccc3)n2)c1		> 100 µM	> 100 µM	> 100 µM	> 100 µM	> 100 µM	> 100 µM		> 100 µM		> 100 µM	> 100 µM	> 100 µM	> 100 µM	> 100 µM	> 100 µM	> 100 µM	> 100 µM	
O=C1CN(c2ccccc2)C(=O)CN1NCNN1CC(=O)N(c2ccccc2)CC1=O	> 100 µM	> 100 µM	> 100 µM	> 100 µM	> 100 µM	> 100 µM	> 100 µM		> 100 µM		> 100 µM	> 100 µM	> 100 µM	> 100 µM	> 100 µM	> 100 µM	> 100 µM	> 100 µM	> 100 µM
CCCCCCc1cc2cc(C(=O)Nc3cccc(F)c3)c(=N)oc2cc1O	10.2 µM	11.1 µM	5.87 µM	6.51 µM	11.3 µM	14 µM	17.7 µM		11.5 µM	5.44 µM	13.3 µM	5.33 µM	10.6 µM	11.9 µM	12.4 µM	19.2 µM	7.04 µM	23.9 µM	6.44 µM
CC(=O)Oc1cc(-c2oc3cc(OC(C)=O)c(C4OC(CO)C(O)C(O)C4O)c(OC(C)=O)c3c(=O)c2O)c(OC(C)=O)cc1O (configuration not stated)	> 100 µM	> 100 µM	> 100 µM	> 100 µM	> 100 µM	> 100 µM	> 100 µM	> 100 µM	> 100 µM	> 100 µM	> 100 µM	> 100 µM		> 100 µM	> 100 µM		> 100 µM		> 100 µM
CCOC(=O)CC1Nc2ccccc2C12CCc1c([nH]c3ccccc13)C2C(=O)OCC (configuration not stated)	> 100 µM	> 100 µM	> 100 µM	> 100 µM	> 100 µM	> 100 µM	> 100 µM		> 100 µM	> 100 µM	> 100 µM	53.8 µM	> 100 µM	> 100 µM	> 100 µM	> 100 µM	> 100 µM	> 100 µM	> 100 µM
C=C(C)COc1cc(NC(=S)OC(C)C)ccc1Cl	28.7 µM	28.4 µM	30.6 µM	28.6 µM	31.7 µM	28.6 µM		32.7 µM	30.5 µM	27.2 µM	38.1 µM	35.9 µM	40.6 µM	31.8 µM	26.9 µM	30 µM	32.7 µM	33.4 µM	24.8 µM
C=C(C)CCC(O)[C@](C)(O)[C@H]1[C@H](O)C[C@@]2(C)[C@@H]3CCc4c(cc(OC5OC(CO)C(O)C(O)C5O)c(O)c4C)C3(C)C(=O)C[C@]12C (some centres not stated)	> 100 µM	> 100 µM	> 100 µM	> 100 µM	> 100 µM	> 100 µM	> 100 µM	> 100 µM	> 100 µM	> 100 µM	> 100 µM		> 100 µM	> 100 µM	> 100 µM	> 100 µM	> 100 µM	> 100 µM	> 100 µM
COC(=O)c1c2c(cc3c1CC1(C3)Cc3cc4c(c(C(=O)OC)c3C1)CCC4)CCC2		> 100 µM		> 100 µM	> 100 µM	> 100 µM	> 100 µM	> 100 µM	> 100 µM	> 100 µM	> 100 µM	> 100 µM		> 100 µM	28.4 µM	> 100 µM	> 100 µM		> 100 µM
S=C(S)NCCN1CCNCC1	> 100 µM	> 100 µM	> 100 µM	> 100 µM	> 100 µM	> 100 µM	> 100 µM	> 100 µM	77 µM	> 100 µM	> 100 µM	8.01 µM	> 100 µM	59 µM	> 100 µM		> 100 µM	> 100 µM	> 100 µM
N=c1oc2cc(O)ccc2cc1C(=O)Nc1cccc2ccccc12	24.8 µM	14.7 µM	11.5 µM	6.54 µM	60 µM	10.2 µM	> 44 µM	16.6 µM	17.3 µM		27.6 µM	10.7 µM	57.2 µM	41.2 µM	19.9 µM		14.3 µM	35.4 µM	14.6 µM
O=C(CC(C(=O)c1cccs1)c1ccc2c(c1)OCO2)c1ccccc1 (configuration not stated)	> 100 µM	> 100 µM	> 100 µM	> 100 µM	> 100 µM	> 100 µM	> 100 µM	> 100 µM	> 100 µM	> 100 µM	> 100 µM	> 100 µM	> 100 µM	> 100 µM	> 100 µM	> 100 µM	> 100 µM	> 100 µM	
CN1CCc2c(sc3ncn(Nc4ccc(F)cc4)c(=N)c23)C1	> 100 µM	> 100 µM	> 100 µM	> 100 µM	> 100 µM	> 100 µM	> 100 µM	> 100 µM	> 100 µM	> 100 µM	> 100 µM	> 100 µM	> 100 µM	> 100 µM		> 100 µM	> 100 µM	> 100 µM	> 100 µM
Cn1c(=O)cc(Nc2ccc(N)cc2)[nH]c1=O	> 100 µM	> 100 µM	> 100 µM	> 100 µM	> 100 µM	> 100 µM	> 100 µM	> 100 µM	> 100 µM	> 100 µM	> 100 µM		> 100 µM	> 100 µM	> 100 µM	> 100 µM	> 100 µM	> 100 µM	> 100 µM
COCCCNc1c2ccccc2nc2ccccc12	3.75 µM	15.7 µM	3.38 µM	12.7 µM	3.89 µM	5.68 µM	12.2 µM		17.9 µM	4.89 µM	12.4 µM	15.2 µM	16.8 µM	7.03 µM	8.01 µM	8.59 µM	6.35 µM	6.41 µM	27.3 µM
Cc1ccc(S(=O)(=O)Nn2c(S)c(C#N)c(-c3ccc(Cl)cc3)c(C#N)c2=O)cc1	> 100 µM	> 100 µM	71.1 µM	86.9 µM	> 100 µM	> 100 µM		66.5 µM	> 100 µM	> 100 µM	> 100 µM	65.8 µM		> 100 µM	57.5 µM	39.6 µM	> 100 µM	> 100 µM	> 100 µM
COc1ccc(Nc2cc(=O)[nH]c(=O)[nH]2)cc1		> 100 µM	> 100 µM	> 100 µM	> 100 µM	> 100 µM	> 100 µM	> 100 µM	> 100 µM			> 100 µM	> 100 µM	> 100 µM	> 100 µM	> 100 µM		> 100 µM	> 100 µM
[O-][N+]1=C2CCC/C(=N/O)C2(O)C2CCCCC21N1CCOCC1 (configuration not stated)	> 100 µM	> 100 µM	> 100 µM	> 100 µM	> 100 µM	> 100 µM	> 100 µM	> 100 µM	> 100 µM	> 100 µM	> 100 µM		> 100 µM	> 100 µM	> 100 µM	> 100 µM	> 100 µM	> 100 µM	> 100 µM
O=C(OCC(OC(=O)c1ccccc1)C1CC(C2(O)CCCCC2)C(=O)O1)c1ccccc1 (configuration not stated)	> 25 µM	> 25 µM	> 25 µM	> 25 µM	> 25 µM	> 25 µM	> 25 µM	> 25 µM	> 25 µM	> 25 µM	> 25 µM		> 25 µM	> 25 µM	3.88 µM	> 25 µM	2.21 µM	> 25 µM	> 25 µM
O[C@@]12Cc3c([nH]c4ccccc34)[C@@H]3Oc4c(-c5ccccc5)ccc5c4[C@@]31CCN(CC1CC1)[C@@H]2C5	11.1 µM	3.1 µM	4.06 µM	3.27 µM	3.31 µM	3.76 µM	3.06 µM		3.04 µM	3.3 µM	10.7 µM	4.48 µM	14.7 µM	3.45 µM	3.11 µM		3.32 µM	3.95 µM	4 µM
